Assays:
FAK [1] = molecular target: T1, FAK (Homo sapiens, UniProt Q05397); assay: Cell-based capture ELISA for inhibition of FAK autophosphorylation [pY397] in MiaPaCa2 cells; conditions: MIA-PaCa2 cells, + 50% mouse plasma (Table 3); read-out: Mean FAK Cell Mechanistic IC50 + 50% mP MIA-PaCa2
Protocol: Cell-Based Assays for Inhibition of FAK Autophosphorylation: MiaPaCa2 and U87MG
ELISA kit from Invitrogen (KHO0441).
Reagents Provided in Biosource FAK [pY397]
The cells were then suspended in cell assay medium.

FAK [2] = molecular target: T1, FAK; assay: biochemical

T1 sequence (Q05397 whole entry): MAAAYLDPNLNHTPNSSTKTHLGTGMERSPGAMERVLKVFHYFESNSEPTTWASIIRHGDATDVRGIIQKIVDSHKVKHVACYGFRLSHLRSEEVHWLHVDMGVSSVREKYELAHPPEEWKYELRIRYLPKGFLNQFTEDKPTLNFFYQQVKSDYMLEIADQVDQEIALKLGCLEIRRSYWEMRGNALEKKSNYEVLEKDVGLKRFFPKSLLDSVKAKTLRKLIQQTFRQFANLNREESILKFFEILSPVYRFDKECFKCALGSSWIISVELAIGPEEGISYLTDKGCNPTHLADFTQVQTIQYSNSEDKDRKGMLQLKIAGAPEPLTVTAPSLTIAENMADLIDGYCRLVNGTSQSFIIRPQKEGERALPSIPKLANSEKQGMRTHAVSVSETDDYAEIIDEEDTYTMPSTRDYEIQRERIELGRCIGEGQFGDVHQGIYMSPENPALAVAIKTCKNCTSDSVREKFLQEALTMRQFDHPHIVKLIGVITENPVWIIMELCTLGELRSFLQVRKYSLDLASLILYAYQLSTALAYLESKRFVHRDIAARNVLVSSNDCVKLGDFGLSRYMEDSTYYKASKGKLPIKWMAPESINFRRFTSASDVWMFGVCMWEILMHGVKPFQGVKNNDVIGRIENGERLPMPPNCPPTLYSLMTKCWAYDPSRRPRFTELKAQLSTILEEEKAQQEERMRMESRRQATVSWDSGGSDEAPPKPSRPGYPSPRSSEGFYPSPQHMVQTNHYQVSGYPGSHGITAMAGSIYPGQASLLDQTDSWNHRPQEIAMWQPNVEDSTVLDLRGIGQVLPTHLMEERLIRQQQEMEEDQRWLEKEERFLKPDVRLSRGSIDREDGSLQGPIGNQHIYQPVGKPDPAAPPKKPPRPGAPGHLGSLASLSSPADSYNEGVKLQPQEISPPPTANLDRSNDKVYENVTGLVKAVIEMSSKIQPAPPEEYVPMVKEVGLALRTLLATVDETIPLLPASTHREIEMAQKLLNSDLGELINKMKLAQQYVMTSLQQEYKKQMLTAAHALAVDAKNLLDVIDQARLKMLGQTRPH

SMILES | IC50 (FAK [1]) | IC50 (FAK [2])
CCCP(=O)(CCC)c1cccc(Nc2ncc(C(F)(F)F)c(Nc3ccc(-c4cnn(CCO)c4)c4c3C(=O)N(C)C4)n2)c1 [Example 168, 7-{[2-{[3-(Dipropylphosphoryl)phenyl]amino}-5-(trifluoromethyl)pyrimidin-4-yl]amino}-4-[1-(3-hydroxyethyl)-1H-pyrazol-4-yl]-2-methyl-2,3-dihydro-1H-isoindol-1-one] | < 1 µM | < 1 µM
CCOP(=O)(Cc1ccc(Nc2ncc(C(F)(F)F)c(Nc3ccc([C@H]4CC[C@H](OCC)CC4)c4c3C(=O)N(C)C4)n2)cc1)OCC [Example 169, Diethyl (4-{[4-{[7-(trans-4-ethoxycyclohexyl)-2-methyl-3-oxo-2,3-dihydro-1H-isoindol-4-yl]amino}-5-(trifluoromethyl)pyrimidin-2-yl]amino}benzyl)phosphonate] | < 1 µM | < 1 µM
CCOP(=O)(OCC)C(F)c1ccc(Nc2ncc(C(F)(F)F)c(Nc3ccccc3C(=O)NC)n2)cc1 (stereo not shown) [Example 172, Diethyl [fluoro(4-{[4-{[2-(methylcarbamoyl)phenyl]amino}-5-(trifluoromethyl)pyrimidin-2-yl]amino}phenyl)methyl]phosphonate] | < 1 µM | < 1 µM
CCOP(C)(=O)Cc1ccc(Nc2ncc(C(F)(F)F)c(Nc3ccc([C@H]4CC[C@H](O)CC4)c4c3C(=O)N(C)C4)n2)cc1 (stereo partly drawn) [Example 174, Ethyl (4-{[4-{[7-(trans-4-hydroxycyclohexyl)-2-methyl-3-oxo-2,3-dihydro-1H-isoindol-4-yl]amino}-5-(trifluoromethyl)pyrimidin-2-yl]amino}benzyl) methylphosphinate] | < 1 µM | < 1 µM
CCOP(=O)(Cc1ccc(Nc2ncc(C(F)(F)F)c(Nc3ccc(-c4cnn(CCN(CC)CC)c4)c4c3C(=O)N(C)C4)n2)cc1)OCC [Example 175, Diethyl [4-({4-[(7-{1-[2-(diethylamino)ethyl]-1H-pyrazol-4-yl}-2-methyl-3-oxo-2,3-dihydro-1H-isoindol-4-yl)amino]-5-(trifluoromethyl)pyrimidin-2-yl}amino)benzyl]phosphonate] | < 1 µM | < 1 µM
CCOP(=O)(Cc1ccc(Nc2ncc(C(F)(F)F)c(Nc3ccccc3C(=O)N3CCCC3)n2)cc1)OCC [Example 176, Diethyl (4-{[4-{[2-(pyrrolidin-1-ylcarbonyl)phenyl]amino}-5-(trifluoromethyl)pyrimidin-2-yl]amino}benzyl)phosphonate] | 1 to 10 µM | < 1 µM
CCOP(=O)(O)Cc1ccc(Nc2ncc(C(F)(F)F)c(Nc3ccc(-c4cnn(CCCO)c4)c4c3C(=O)N(C)C4)n2)cc1 [Example 182, Sodium ethyl (4-{[4-({7-[1-(3-hydroxypropyl)-1H-pyrazol-4-yl]-2-methyl-3-oxo-2,3-dihydro-1H-isoindol-4-yl}amino)-5-(trifluoromethyl)pyrimidin-2-yl]amino}benzyl)phosphonate] | 1 to 10 µM | < 1 µM
CCOP(=O)(Cc1ccc(Nc2ncc(C(F)(F)F)c(Nc3ccc([C@H]4CC[C@](C)(O)CC4)c4c3C(=O)N(C)C4)n2)cc1)OCC [Example 183, Diethyl (4-{[4-{[7-(trans-4-hydroxy-4-methylcyclohexyl)-2-methyl-3-oxo-2,3-dihydro-1H-isoindol-4-yl]amino}-5-(trifluoromethyl)pyrimidin-2-yl]amino}benzyl)phosphonate] | < 1 µM | < 1 µM
CCOP(=O)(Cc1ccc(Nc2ncc(C(F)(F)F)c(Nc3ccc([C@H]4CC[C@@](C)(O)CC4)c4c3C(=O)N(C)C4)n2)cc1)OCC [Example 184, Diethyl (4-{[4-{[7-(cis-4-hydroxy-4-methylcyclohexyl)-2-methyl-3-oxo-2,3-dihydro-1H-isoindol-4-yl]amino}-5-(trifluoromethyl)pyrimidin-2-yl]amino}benzyl) phosphonate] | < 1 µM | < 1 µM
CNC(=O)c1ccccc1Nc1nc(Nc2ccc(CP(=O)(OCCOC)OCCOC)cc2)ncc1C(F)(F)F [Example 185, Bis(2-methoxyethyl) (4-{[4-{[2-(methylcarbamoyl)phenyl]amino}-5-(trifluoromethyl)pyrimidin-2-yl]amino}benzyl)phosphonate] | < 1 µM | < 1 µM
CCOP(=O)(OCC)C(F)(F)c1ccc(Nc2ncc(C(F)(F)F)c(Nc3ccccc3C(=O)NC)n2)cc1 [Example 188, Diethyl [difluoro(4-{[4-{[2-(methylcarbamoyl)phenyl]amino}-5-(trifluoromethyl)-pyrimidin-2-yl]amino}phenyl)methyl]phosphonate] | < 1 µM | < 1 µM
COCCOP(=O)(Cc1ccc(Nc2ncc(C(F)(F)F)c(Nc3ccc([C@H]4CC[C@H](O)CC4)c4c3C(=O)N(C)C4)n2)cc1)OCCOC [Example 189, Bis(2-methoxyethyl) (4-{[4-{[7-(trans-4-hydroxycyclohexyl)-2-methyl-3-oxo-2,3-dihydro-1H-isoindol-4-yl]amino}-5-(trifluoromethyl)pyrimidin-2-yl]amino}benzyl)phosphonate] | < 1 µM | < 1 µM
CCOP(=O)(Cc1ccc(Nc2ncc(C(F)(F)F)c(Nc3ccccc3C(N)=O)n2)c(OC)c1)OCC [Example 190, Diethyl [4-({4-[(2-carbamoylphenyl)amino]-5-(trifluoromethyl)pyrimidin-2-yl}amino)-3-methoxybenzyl]phosphonate] | < 1 µM | < 1 µM
CCOP(C)(=O)Cc1ccc(Nc2ncc(C(F)(F)F)c(Nc3ccc([C@H]4CC[C@H](O)CC4)c4c3C(=O)N(C)C4)n2)c(OC)c1 (stereo partly drawn) [Example 191, Ethyl (4-{[4-{[7-(trans-4-hydroxycyclohexyl)-2-methyl-3-oxo-2,3-dihydro-1H-isoindol-4-yl]amino}-5-(trifluoromethyl)pyrimidin-2-yl]amino}-3-methoxybenzyl) methylphosphinate] | < 1 µM | < 1 µM
CCOP(=O)(Cc1ccc(Nc2ncc(C(F)(F)F)c(Nc3ccc([C@H]4CC[C@@H](O)CC4)cc3C(=O)N(C)C)n2)c(OC)c1)OCC [Example 194, Diethyl (4-{[4-{[2-(dimethylcarbamoyl)-4-(cis-4-hydroxycyclohexyl)phenyl]amino}-5-(trifluoromethyl)pyrimidin-2-yl]amino}-3-methoxybenzyl)phosphonate] | 1 to 10 µM | < 1 µM
CCOP(=O)(Cc1ccc(Nc2ncc(C(F)(F)F)c(Nc3ccc([C@H]4CC[C@](C)(O)CC4)c4c3C(=O)N(C)C4)n2)c(OC)c1)OCC [Example 196, Diethyl (4-{[4-{[7-(trans-4-hydroxy-4-methylcyclohexyl)-2-methyl-3-oxo-2,3-dihydro-1H-isoindol-4-yl]amino}-5-(trifluoromethyl)pyrimidin-2-yl]amino}-3-methoxybenzyl)phosphonate] | < 1 µM | < 1 µM
CCOP(=O)(Cc1ccc(Nc2ncc(C(F)(F)F)c(Nc3ccc([C@H]4CC[C@@](C)(O)CC4)c4c3C(=O)N(C)C4)n2)c(OC)c1)OCC [Example 197, Diethyl (4-{[4-{[7-(cis-4-hydroxy-4-methylcyclohexyl)-2-methyl-3-oxo-2,3-dihydro-1H-isoindol-4-yl]amino}-5-(trifluoromethyl)pyrimidin-2-yl]amino}-3-methoxybenzyl)phosphonate] | < 1 µM | < 1 µM
CCCP(=O)(CCC)c1ccc(Nc2ncc(C(F)(F)F)c(Nc3ccc([C@H]4CC[C@H](O)CC4)c4c3C(=O)N(C)C4)n2)cc1 [Example 198, 7-{[2-{[4-(Dipropylphosphoryl)phenyl]amino}-5-(trifluoromethyl)pyrimidin-4-yl]amino}-4-(trans-4-hydroxycyclohexyl)-2-methyl-2,3-dihydro-1H-isoindol-1-one] | < 1 µM | < 1 µM
CCOP(=O)(Cc1ccc(Nc2ncc(C(F)(F)F)c(Nc3ccc(N4CCN(C(C)=O)CC4)c4c3C(=O)N(C)C4)n2)cc1)OCC [Example 199, Diethyl (4-{[4-{[7-(4-acetylpiperazin-1-yl)-2-methyl-3-oxo-2,3-dihydro-1H-isoindol-4-yl]amino}-5-(trifluoromethyl)pyrimidin-2-yl]amino}benzyl)phosphonate] | < 1 µM | < 1 µM
CCOP(=O)(Cc1ccc(Nc2ncc(C(F)(F)F)c(Nc3ccc(N4CCN(C)CC4)c4c3C(=O)N(C)C4)n2)cc1)OCC [Example 201, Diethyl (4-{[4-{[2-methyl-7-(4-methylpiperazin-1-yl)-3-oxo-2,3-dihydro-1H-isoindol-4-yl]amino}-5-(trifluoromethyl)pyrimidin-2-yl]amino}benzyl)phosphonate] | < 1 µM | < 1 µM
CCOP(=O)(Cc1ccc(Nc2ncc(C(F)(F)F)c(Nc3cccc4[nH]cc(C)c(=O)c34)n2)cc1)OCC [Example 203, Diethyl [4-({4-[(3-methyl-4-oxo-1,4-dihydroquinolin-5-yl)amino]-5-(trifluoromethyl)pyrimidin-2-yl}amino)benzyl]phosphonate] | < 1 µM | < 1 µM
CCOc1ccc(Nc2nc(Nc3ccc(CP(=O)(OCC)OCC)cc3)ncc2C(F)(F)F)c2c1CN(C)C2=O [Example 206, Diethyl [4-({4-[(7-ethoxy-2-methyl-3-oxo-2,3-dihydro-1H-isoindol-4-yl)amino]-5-(trifluoromethyl)pyrimidin-2-yl}amino)benzyl]phosphonate] | < 1 µM | < 1 µM
CCOP(=O)(Cc1ccc(Nc2ncc(C(F)(F)F)c(Nc3ccc(OC(C)C)c4c3C(=O)N(C)C4)n2)cc1)OCC [Example 207, Diethyl (4-{[4-{[2-methyl-3-oxo-7-(propan-2-yloxy)-2,3-dihydro-1H-isoindol-4-yl]amino}-5-(trifluoromethyl)pyrimidin-2-yl]amino}benzyl)phosphonate] | < 1 µM | < 1 µM
